According to the supplement of paper PMC8967900:

Each molecule was assayed on TANOUE (assay: selective drug sensitivity score (sDSS, relative to normal bone marrow) (sDSS (score)); higher = more potent and effective on the cell line relative to normal bone marrow cells). Conditions: 72 h.
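Note: ALL cell lines in 384-well plates, five doses spanning 10,000-fold, each plate scaled between vehicle and 100 µmol/L benzalkonium chloride controls, sDSS an adapted area-under-curve metric.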

SMILES	selective drug sensitivity score
Nc1ncnc2c1c(COc1cccc(Cl)c1)nn2C1CCOCC1 (top concentration 10000 nM)	1.16
CC1(C)CNc2cc(NC(=O)c3cccnc3NCc3ccncc3)ccc21 [Motesanib] (top concentration 10000 nM)	1.58
NC(=O)c1cccc(-c2cccc(OC(=O)NC3CCCCC3)c2)c1 [URB597] (top concentration 1000 nM)	2.84
CCCN(CCC)C(=O)C1=Cc2ccc(-c3ccc(C(=O)N4CCCC4)cc3)cc2N=C(N)C1 [Motolimod] (top concentration 10000 nM)	-4.48
CCCOc1ccn2c(C(C)=O)cc(-c3ccccc3S(C)(=O)=O)c2c1 [GSK2801] (top concentration 10000 nM)	-0.36
Nc1cc(COc2c(Cl)cc(C[C@H](N)C(=O)O)cc2Cl)c2oc(-c3ccccc3)nc2c1 [JPH203] (top concentration 5000 nM)	0
CC/C(=C(\c1ccccc1)c1ccc(OCCN(C)C)cc1)c1ccccc1 [Tamoxifen] (top concentration 10000 nM)	-2.28
NC(=S)N/N=C/c1ncccc1N [Triapine] (top concentration 10000 nM)	-1.32
C=CCN(/C=C1/C(=O)O[C@H](COC)[C@@]2(C)C1=C(O)C(=O)C1=C2[C@H](OC(C)=O)C[C@]2(C)C(=O)CC[C@@H]12)CC=C [Sonolisib] (top concentration 10000 nM)	-0.76
C[C@H]1CNCCCN1S(=O)(=O)c1cccc2cncc(F)c12 [Ripasudil] (top concentration 10000 nM)	-0.22
C[C@@H](Oc1cc(-c2cnn(C3CCNCC3)c2)cnc1N)c1c(Cl)ccc(F)c1Cl [Crizotinib] (top concentration 1000 nM)	-0.54
CCN(CC)CCCC(C)Nc1ccnc2cc(Cl)ccc12 (stereo not given) [Chloroquine] (top concentration 100000 nM)	-6.04
N#CC(c1ccnc(OCc2ccc(CN3CCOCC3)cc2)n1)c1nc2ccccc2s1 (stereo not given) [Bentamapimod] (top concentration 10000 nM)	0.84
COc1cc(N2CCC(N3CCN(C)CC3)CC2)ccc1Nc1ncnc(Nc2ccccc2S(=O)(=O)C(C)C)n1 [ASP3026] (top concentration 10000 nM)	-2.64
COCCOc1cnc2ccn([C@H](C)c3nnc4c(F)cc(-c5cnn(C)c5)cn34)c(=O)c2c1 [AMG-337] (top concentration 10000 nM)	-0.06
Cc1cnc(NC(=O)Nc2cc(Br)c(C)cc2OC[C@@H]2CNCCO2)cn1 [Rabusertib] (top concentration 1000 nM)	0.46
CNC(=O)c1ccc(-c2cnc3ncc(Cc4ccc5ncccc5c4)n3n2)cc1F [Capmatinib] (top concentration 1000 nM)	0.44
COc1cc2/c(=N/c3ccc(Br)cc3F)nc[nH]c2cc1OCC1CCN(C)CC1 [Vandetanib] (top concentration 1000 nM)	-0.22

The molecules below were run on TMD5 in the same assay as above. Conditions: 72 h.

SMILES	selective drug sensitivity score
Nc1ncnc2c1c(COc1cccc(Cl)c1)nn2C1CCOCC1 (top concentration 10000 nM)	-0.64
CC1(C)CNc2cc(NC(=O)c3cccnc3NCc3ccncc3)ccc21 [Motesanib] (top concentration 10000 nM)	-0.22
NC(=O)c1cccc(-c2cccc(OC(=O)NC3CCCCC3)c2)c1 [URB597] (top concentration 1000 nM)	-0.46
CCCN(CCC)C(=O)C1=Cc2ccc(-c3ccc(C(=O)N4CCCC4)cc3)cc2N=C(N)C1 [Motolimod] (top concentration 10000 nM)	-3.48
CCCOc1ccn2c(C(C)=O)cc(-c3ccccc3S(C)(=O)=O)c2c1 [GSK2801] (top concentration 10000 nM)	-0.36
Nc1cc(COc2c(Cl)cc(C[C@H](N)C(=O)O)cc2Cl)c2oc(-c3ccccc3)nc2c1 [JPH203] (top concentration 5000 nM)	2.1
CC/C(=C(\c1ccccc1)c1ccc(OCCN(C)C)cc1)c1ccccc1 [Tamoxifen] (top concentration 10000 nM)	-0.48
NC(=S)N/N=C/c1ncccc1N [Triapine] (top concentration 10000 nM)	2.28
C=CCN(/C=C1/C(=O)O[C@H](COC)[C@@]2(C)C1=C(O)C(=O)C1=C2[C@H](OC(C)=O)C[C@]2(C)C(=O)CC[C@@H]12)CC=C [Sonolisib] (top concentration 10000 nM)	-0.76
C[C@H]1CNCCCN1S(=O)(=O)c1cccc2cncc(F)c12 [Ripasudil] (top concentration 10000 nM)	0.98
C[C@@H](Oc1cc(-c2cnn(C3CCNCC3)c2)cnc1N)c1c(Cl)ccc(F)c1Cl [Crizotinib] (top concentration 1000 nM)	1.66
CCN(CC)CCCC(C)Nc1ccnc2cc(Cl)ccc12 (stereo not given) [Chloroquine] (top concentration 100000 nM)	-4.54
N#CC(c1ccnc(OCc2ccc(CN3CCOCC3)cc2)n1)c1nc2ccccc2s1 (stereo not given) [Bentamapimod] (top concentration 10000 nM)	0.74
COc1cc(N2CCC(N3CCN(C)CC3)CC2)ccc1Nc1ncnc(Nc2ccccc2S(=O)(=O)C(C)C)n1 [ASP3026] (top concentration 10000 nM)	-1.84
COCCOc1cnc2ccn([C@H](C)c3nnc4c(F)cc(-c5cnn(C)c5)cn34)c(=O)c2c1 [AMG-337] (top concentration 10000 nM)	-0.06
Cc1cnc(NC(=O)Nc2cc(Br)c(C)cc2OC[C@@H]2CNCCO2)cn1 [Rabusertib] (top concentration 1000 nM)	-0.74
CNC(=O)c1ccc(-c2cnc3ncc(Cc4ccc5ncccc5c4)n3n2)cc1F [Capmatinib] (top concentration 1000 nM)	-0.06
COc1cc2/c(=N/c3ccc(Br)cc3F)nc[nH]c2cc1OCC1CCN(C)CC1 [Vandetanib] (top concentration 1000 nM)	5.38

These molecules were tested on RCH-ACV in the same assay as above. Conditions: 72 h.

SMILES	selective drug sensitivity score
Nc1ncnc2c1c(COc1cccc(Cl)c1)nn2C1CCOCC1 (top concentration 10000 nM)	6.06
CC1(C)CNc2cc(NC(=O)c3cccnc3NCc3ccncc3)ccc21 [Motesanib] (top concentration 10000 nM)	-0.22
NC(=O)c1cccc(-c2cccc(OC(=O)NC3CCCCC3)c2)c1 [URB597] (top concentration 1000 nM)	-0.46
CCCN(CCC)C(=O)C1=Cc2ccc(-c3ccc(C(=O)N4CCCC4)cc3)cc2N=C(N)C1 [Motolimod] (top concentration 10000 nM)	-1.68
CCCOc1ccn2c(C(C)=O)cc(-c3ccccc3S(C)(=O)=O)c2c1 [GSK2801] (top concentration 10000 nM)	3.24
Nc1cc(COc2c(Cl)cc(C[C@H](N)C(=O)O)cc2Cl)c2oc(-c3ccccc3)nc2c1 [JPH203] (top concentration 5000 nM)	4.5
CC/C(=C(\c1ccccc1)c1ccc(OCCN(C)C)cc1)c1ccccc1 [Tamoxifen] (top concentration 10000 nM)	4.42
NC(=S)N/N=C/c1ncccc1N [Triapine] (top concentration 10000 nM)	7.38
C=CCN(/C=C1/C(=O)O[C@H](COC)[C@@]2(C)C1=C(O)C(=O)C1=C2[C@H](OC(C)=O)C[C@]2(C)C(=O)CC[C@@H]12)CC=C [Sonolisib] (top concentration 10000 nM)	2.14
